Source: patent US6737383B1, “Herbicidal oxadiazolidines” (priority 1999, dated 2004)

What was measured:
[1] = tested on: rape; experiment: Test B pre/postemergence rape; format: in vivo, Brassica napus
Summary of the method: (§1)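 Response is a visual 0-to-10 score relative to untreated plants, where 0 means no effect and 10 means complete control, taken twelve to sixteen days after application. Treatments went onto soil at planting and onto foliage of 1- to 4-leaf plants, using a surfactant-containing non-phytotoxic solvent.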

[2] = tested on: wild oat; experiment: Test B pre/postemergence wild oat; format: in vivo, Avena fatua
Summary of the method: as §1

[3] = tested on: velvetleaf; experiment: Test B pre/postemergence velvetleaf; format: in vivo, Abutilon theophrasti
Summary of the method: as §1

[4] = tested on: giant foxtail; experiment: Test B pre/postemergence giant foxtail; format: in vivo, Setaria faberii
Summary of the method: as §1

[5] = tested on: surinam grass; experiment: Test B pre/postemergence surinam grass; format: in vivo, Brachiaria decumbens
Summary of the method: as §1

[6] = tested on: pigweed; experiment: Test B pre/postemergence pigweed; format: in vivo, Amaranthus retroflexus
Summary of the method: as §1

[7] = tested on: morningglory; experiment: Test B pre/postemergence morningglory; format: in vivo, Ipomoea hederacea
Summary of the method: as §1

[8] = tested on: wheat; experiment: Test B pre/postemergence wheat; format: in vivo, Triticum aestivum
Summary of the method: as §1

[9] = tested on: purple nutsedge; experiment: Test B pre/postemergence purple nutsedge; format: in vivo, Cyperus rotundus
Summary of the method: as §1

[10] = tested on: soybean; experiment: Test B pre/postemergence soybean; format: in vivo, Glycine max
Summary of the method: as §1

[11] = tested on: blackgrass; experiment: Test B pre/postemergence blackgrass; format: in vivo, Alopecurus myosuroides
Summary of the method: as §1

[12] = tested on: bedstraw; experiment: Test B pre/postemergence bedstraw; format: in vivo, Galium aparine; details: Postemergence
Summary of the method: as §1

[13] = tested on: cocklebur; experiment: Test B pre/postemergence cocklebur; format: in vivo, Xanthium strumarium
Summary of the method: as §1

[14] = tested on: duck salad; experiment: Test B flood test duck salad; format: in vivo, Heteranthera limosa
Summary of the method: (§2)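 Each value is a visual injury score relative to controls, with 10 meaning complete control and 0 no effect. Evaluation took place twelve to sixteen days after the 2-leaf-stage plants were treated and kept in the greenhouse.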

[15] = tested on: bamyardgrass; experiment: Test B flood test barnyardgrass; format: in vivo, Echinochloa crus-galli
Summary of the method: as §2

[16] = tested on: smallflower flatsedge; experiment: Test B flood test smallflower flatsedge; format: in vivo, Cyperus difformis
Summary of the method: as §2

[17] = Postemergence, Rate 62 g/ha, scale 0 to 10, 0 is no effect, 10 is complete control
[18] = Postemergence, Rate 125 g/ha, scale of 0 to 10 where 0 is no effect and 10 is complete control
[19] = Postemergence, Rate 250 g/ha, scale of 0 to 10, 0 is no effect, 10 is complete control
[20] = Postemergence, Rate 500 g/ha, scale of 0 to 10 where 0 is no effect and 10 is complete control
[21] = Preemergence, Rate 62 g/ha, scale 0 to 10 (0 no effect, 10 complete control)
[22] = Preemergence, Rate 125 g/ha, scale of 0 to 10 where 0 is no effect and 10 is complete control
[23] = Preemergence, Rate 250 g/ha, scale 0 to 10 (0 no effect, 10 complete control)
[24] = Preemergence, Rate 500 g/ha, scale of 0 to 10 where 0 is no effect and 10 is complete control
[25] = Rate 62 g/ha, flood test species, Pre-emergence, visual evaluation after twelve to sixteen days
[26] = Rate 125 g/ha, under heading Pre-emergence, flood test species, visual evaluation after twelve to sixteen days
[27] = Rate 250 g/ha, Pre-emergence (flood test species), scale 0 to 10, 0 is no effect, 10 is complete control
[28] = Rate 500 g/ha, Pre-emergence section of Table B, 0 to 10 scale (0 no effect, 10 complete control)

SMILES: CCOC(Cn1c(=O)on(C(=O)N(c2ccc(Cl)cc2)C(C)C)c1=O)OCC [Compound 633]
- Plant response rating, Rape [1, 17]: 0
- Plant response rating, Rape [1, 18]: 0
- Rape plant response rating [1, 19]: 0
- Plant response rating, Rape [1, 20]: 0
- Rape plant response rating [1, 21]: 0
- Rape plant response rating [1, 22]: 0
- Plant response rating, Rape [1, 23]: 1
- Plant response rating, Rape [1, 24]: 4
- Plant response rating, Wild oats [2, 17]: 0
- Plant response rating, Wild oats [2, 18]: 0
- Wild oats plant response rating [2, 19]: 0
- Wild oats plant response rating [2, 21]: 0
- Wild oats plant response rating [2, 22]: 2
- Plant response rating, Wild oats [2, 23]: 3
- Plant response rating, Wild oats [2, 24]: 5
- Plant response rating, Velvetleaf [3, 17]: 0
- Plant response rating, Velvetleaf [3, 18]: 0
- Velvetleaf plant response rating [3, 19]: 0
- Velvetleaf plant response rating [3, 21]: 0
- Velvetleaf plant response rating [3, 22]: 0
- Plant response rating, Velvetleaf [3, 23]: 0
- Plant response rating, Velvetleaf [3, 24]: 0
- Plant response rating, Giant foxtail [4, 17]: 0
- Plant response rating, Giant foxtail [4, 18]: 0
- Giant foxtail plant response rating [4, 19]: 3
- Plant response rating, Giant foxtail [4, 20]: 8
- Giant foxtail plant response rating [4, 21]: 6
- Giant foxtail plant response rating [4, 22]: 9
- Plant response rating, Giant foxtail [4, 23]: 10
- Plant response rating, Giant foxtail [4, 24]: 10
- Plant response rating, B. signalgrass [5, 17]: 0
- Plant response rating, B. signalgrass [5, 18]: 0
- B. signalgrass plant response rating [5, 19]: 0
- Plant response rating, B. signalgrass [5, 20]: 5
- B. signalgrass plant response rating [5, 21]: 0
- B. signalgrass plant response rating [5, 22]: 3
- Plant response rating, B. signalgrass [5, 23]: 6
- Plant response rating, B. signalgrass [5, 24]: 6
- Plant response rating, Redroot pigweed [6, 17]: 0
- Plant response rating, Redroot pigweed [6, 18]: 0
- Redroot pigweed plant response rating [6, 19]: 1
- Redroot pigweed plant response rating [6, 21]: 0
- Redroot pigweed plant response rating [6, 22]: 0
- Plant response rating, Redroot pigweed [6, 23]: 2
- Plant response rating, Redroot pigweed [6, 24]: 4
- Plant response rating, Morningglory [7, 17]: 1
- Plant response rating, Morningglory [7, 18]: 2
- Morningglory plant response rating [7, 19]: 5
- Plant response rating, Morningglory [7, 20]: 5
- Morningglory plant response rating [7, 21]: 0
- Morningglory plant response rating [7, 22]: 0
- Plant response rating, Morningglory [7, 23]: 0
- Plant response rating, Morningglory [7, 24]: 0
- Plant response rating, Wheat [8, 17]: 0
- Plant response rating, Wheat [8, 18]: 0
- Wheat plant response rating [8, 19]: 0
- Wheat plant response rating [8, 21]: 0
- Wheat plant response rating [8, 22]: 0
- Plant response rating, Wheat [8, 23]: 0
- Plant response rating, Wheat [8, 24]: 0
- Plant response rating, Nutsedge [9, 17]: 0
- Plant response rating, Nutsedge [9, 18]: 0
- Nutsedge plant response rating [9, 19]: 0
- Plant response rating, Nutsedge [9, 20]: 0
- Nutsedge plant response rating [9, 21]: 0
- Nutsedge plant response rating [9, 22]: 0
- Plant response rating, Nutsedge [9, 23]: 0
- Plant response rating, Nutsedge [9, 24]: 0
- Plant response rating, Soybean [10, 17]: 2
- Plant response rating, Soybean [10, 18]: 2
- Soybean plant response rating [10, 19]: 2
- Soybean plant response rating [10, 21]: 0
- Soybean plant response rating [10, 22]: 0
- Plant response rating, Soybean [10, 23]: 0
- Plant response rating, Soybean [10, 24]: 0
- Plant response rating, Blackgrass [11, 17]: 0
- Plant response rating, Blackgrass [11, 18]: 0
- Blackgrass plant response rating [11, 19]: 4
- Plant response rating, Blackgrass [11, 20]: 8
- Blackgrass plant response rating [11, 21]: 0
- Blackgrass plant response rating [11, 22]: 3
- Plant response rating, Blackgrass [11, 23]: 5
- Plant response rating, Blackgrass [11, 24]: 7
- Plant response rating, Bedstraw ([12]; Rate 62 g/ha, scale 0 to 10, 0 is no effect, 10 is complete control): 0
- Plant response rating, Bedstraw ([12]; Rate 125 g/ha, scale of 0 to 10 where 0 is no effect and 10 is complete control): 0
- Bedstraw plant response rating ([12]; Rate 250 g/ha, scale of 0 to 10, 0 is no effect, 10 is complete control): 0
- Plant response rating, Cocklebur [13, 17]: 0
- Plant response rating, Cocklebur [13, 18]: 0
- Cocklebur plant response rating [13, 19]: 0
- Plant response rating, Cocklebur [13, 20]: 0
- Cocklebur plant response rating [13, 21]: 0
- Cocklebur plant response rating [13, 22]: 0
- Plant response rating, Cocklebur [13, 23]: 0
- Plant response rating, Cocklebur [13, 24]: 0
- Plant response rating, Ducksalad (0 to 10 scale, 0 is no effect, 10 is complete control) [14, 25]: 0
- Ducksalad plant response rating (0 to 10 scale, 0 is no effect, 10 is complete control) [14, 26]: 0
- Ducksalad plant response rating [14, 27]: 0
- Ducksalad plant response rating [14, 28]: 0
- Plant response rating, Barnyardgrass (0 to 10 scale, 0 is no effect, 10 is complete control) [15, 25]: 0
- Barnyardgrass plant response rating (0 to 10 scale, 0 is no effect, 10 is complete control) [15, 26]: 0
- Barnyardgrass plant response rating [15, 27]: 0
- Barnyardgrass plant response rating [15, 28]: 0
- Plant response rating, S. Flatsedge (0 to 10 scale, 0 is no effect, 10 is complete control) [16, 25]: 0
- S. Flatsedge plant response rating (0 to 10 scale, 0 is no effect, 10 is complete control) [16, 26]: 0
- S. Flatsedge plant response rating [16, 27]: 0
- S. Flatsedge plant response rating [16, 28]: 0
